Test results from US8263606B2 (Xenon Pharmaceuticals Inc., priority 2008, dated 2012).

What was measured:
[1] = rat; intravenous application; concentrations that do not affect general behaviour and motor function; cited from earlier work
Nav1.8 = Nav1.8 (Homo sapiens, UniProt Q9Y5Y9); type: cell-based
Nav1.4 = Nav1.4 (Cricetulus griseus, UniProt A0A9J7H6F9); type: cell-based, Chinese Hamster
Nav1.4 and 1.5 = type: cell-based, rat
Nav1.2 = Nav1.2 (Rattus norvegicus, UniProt P04775)
Nav1.9 and Nav1.7 = type: cell-based, Human
CYP3A4 = CYP3A4 (Homo sapiens, UniProt P08684); experiment: Cytochrome P450 (CYP450) Inhibition Assay, CYP3A4 (Vivid fluorescence, BOMCC substrate); settings: human, P450 Baculosomes (recombinant CYP3A4), probe BOMCC (Vivid substrate)
Sequence of CYP3A4 (P08684 whole entry): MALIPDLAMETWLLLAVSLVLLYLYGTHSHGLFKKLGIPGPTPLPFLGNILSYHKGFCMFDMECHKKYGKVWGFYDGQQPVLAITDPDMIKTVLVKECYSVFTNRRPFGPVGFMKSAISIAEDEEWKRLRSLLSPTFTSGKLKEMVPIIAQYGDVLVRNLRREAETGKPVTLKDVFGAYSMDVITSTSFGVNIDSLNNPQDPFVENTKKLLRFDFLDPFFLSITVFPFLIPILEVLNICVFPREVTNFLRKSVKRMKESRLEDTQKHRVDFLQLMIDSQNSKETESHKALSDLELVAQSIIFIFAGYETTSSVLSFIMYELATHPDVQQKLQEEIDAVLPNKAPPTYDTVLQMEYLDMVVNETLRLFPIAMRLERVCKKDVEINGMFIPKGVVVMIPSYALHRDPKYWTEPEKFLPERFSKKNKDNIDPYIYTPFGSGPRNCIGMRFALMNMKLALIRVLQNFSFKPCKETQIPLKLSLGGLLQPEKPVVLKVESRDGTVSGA

sodium channel = experiment: Guanidine influx assay (14C-guanidine radiotracer flux, in vitro); type: cell-based, human or rat; settings: guanidine influx assay using a known cell line that expresses a sodium channel; activity level class
How it was run: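 Cells stably expressing human or rat sodium channels (~100,000/well, 20–24 h) were exposed in low-sodium choline buffer to test agent plus aconitine activator and 14C-guanidine at ambient temperature. Intracellular 14C-guanidine was counted by scintillation; IC50 fitted by 4-parameter logistic over half-dilutions around 1 μM.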

[2] = test system: inactivated state of the channel of interest (sodium channel); experiment: Electrophysiological assay (whole cell voltage clamp, in vitro); type: cell-based; settings: affinity for the inactivated state of the channel of interest
How it was run: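 Whole-cell voltage clamp at ambient temperature on stably transfected cells; CsF-based pipette, pH 7.4 NaCl bath. Current blockade measured at holding potentials of −120 mV (resting, Kr) and one giving 10% availability (inactivated, Ki), held ≥10 s to equilibrate; apparent Kd calculated from fractional block.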

Sequence of Nav1.8 (Q9Y5Y9 whole entry, looked up): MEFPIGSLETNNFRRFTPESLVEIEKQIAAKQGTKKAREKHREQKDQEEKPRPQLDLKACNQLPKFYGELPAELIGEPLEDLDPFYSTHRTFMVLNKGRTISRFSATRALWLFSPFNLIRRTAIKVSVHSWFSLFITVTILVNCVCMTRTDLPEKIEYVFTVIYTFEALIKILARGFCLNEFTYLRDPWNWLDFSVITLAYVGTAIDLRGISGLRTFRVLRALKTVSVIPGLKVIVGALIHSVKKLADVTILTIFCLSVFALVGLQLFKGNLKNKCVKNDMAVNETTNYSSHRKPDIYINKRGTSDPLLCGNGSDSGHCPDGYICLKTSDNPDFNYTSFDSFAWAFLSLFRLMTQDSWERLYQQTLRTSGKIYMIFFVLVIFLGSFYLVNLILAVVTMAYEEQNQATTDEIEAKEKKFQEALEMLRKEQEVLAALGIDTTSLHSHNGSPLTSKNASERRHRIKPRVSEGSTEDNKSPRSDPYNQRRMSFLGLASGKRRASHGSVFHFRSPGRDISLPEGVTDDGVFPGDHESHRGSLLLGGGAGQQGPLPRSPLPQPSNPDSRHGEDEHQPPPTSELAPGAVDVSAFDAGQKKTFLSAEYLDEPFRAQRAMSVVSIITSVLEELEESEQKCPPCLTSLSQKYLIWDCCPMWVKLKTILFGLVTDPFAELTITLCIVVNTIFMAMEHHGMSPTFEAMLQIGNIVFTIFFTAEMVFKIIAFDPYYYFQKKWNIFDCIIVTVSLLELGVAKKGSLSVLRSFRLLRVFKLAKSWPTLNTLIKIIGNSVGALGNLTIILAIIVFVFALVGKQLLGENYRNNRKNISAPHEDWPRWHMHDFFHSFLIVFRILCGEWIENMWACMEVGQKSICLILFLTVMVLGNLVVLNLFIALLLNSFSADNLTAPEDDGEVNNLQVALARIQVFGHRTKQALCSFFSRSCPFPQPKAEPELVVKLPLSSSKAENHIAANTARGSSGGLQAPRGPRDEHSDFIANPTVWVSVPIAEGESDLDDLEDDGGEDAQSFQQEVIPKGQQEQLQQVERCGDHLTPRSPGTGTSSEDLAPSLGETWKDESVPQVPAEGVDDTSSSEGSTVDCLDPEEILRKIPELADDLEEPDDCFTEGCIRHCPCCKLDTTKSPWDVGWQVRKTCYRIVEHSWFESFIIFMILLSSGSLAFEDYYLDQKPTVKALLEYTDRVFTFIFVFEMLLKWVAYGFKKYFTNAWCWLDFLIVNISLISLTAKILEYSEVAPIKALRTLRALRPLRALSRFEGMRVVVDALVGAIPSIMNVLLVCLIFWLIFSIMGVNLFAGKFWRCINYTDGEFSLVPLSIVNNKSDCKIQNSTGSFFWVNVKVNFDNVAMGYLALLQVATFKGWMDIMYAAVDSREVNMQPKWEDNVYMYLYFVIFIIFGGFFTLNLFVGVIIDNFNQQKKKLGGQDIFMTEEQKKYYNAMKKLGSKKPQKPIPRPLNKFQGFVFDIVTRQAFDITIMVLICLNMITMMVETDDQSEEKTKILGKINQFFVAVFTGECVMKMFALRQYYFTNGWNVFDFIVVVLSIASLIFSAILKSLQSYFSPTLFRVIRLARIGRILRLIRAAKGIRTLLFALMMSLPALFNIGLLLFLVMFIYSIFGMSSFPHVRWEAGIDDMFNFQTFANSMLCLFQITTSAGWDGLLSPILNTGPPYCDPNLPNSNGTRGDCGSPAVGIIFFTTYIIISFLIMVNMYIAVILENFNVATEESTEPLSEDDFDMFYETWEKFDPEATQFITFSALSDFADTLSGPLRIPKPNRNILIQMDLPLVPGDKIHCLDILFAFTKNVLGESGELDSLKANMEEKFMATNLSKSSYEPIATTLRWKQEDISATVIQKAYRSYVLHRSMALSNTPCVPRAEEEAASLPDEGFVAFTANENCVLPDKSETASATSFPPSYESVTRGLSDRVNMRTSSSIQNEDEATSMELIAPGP
Sequence of Nav1.4 (A0A9J7H6F9 1-1930): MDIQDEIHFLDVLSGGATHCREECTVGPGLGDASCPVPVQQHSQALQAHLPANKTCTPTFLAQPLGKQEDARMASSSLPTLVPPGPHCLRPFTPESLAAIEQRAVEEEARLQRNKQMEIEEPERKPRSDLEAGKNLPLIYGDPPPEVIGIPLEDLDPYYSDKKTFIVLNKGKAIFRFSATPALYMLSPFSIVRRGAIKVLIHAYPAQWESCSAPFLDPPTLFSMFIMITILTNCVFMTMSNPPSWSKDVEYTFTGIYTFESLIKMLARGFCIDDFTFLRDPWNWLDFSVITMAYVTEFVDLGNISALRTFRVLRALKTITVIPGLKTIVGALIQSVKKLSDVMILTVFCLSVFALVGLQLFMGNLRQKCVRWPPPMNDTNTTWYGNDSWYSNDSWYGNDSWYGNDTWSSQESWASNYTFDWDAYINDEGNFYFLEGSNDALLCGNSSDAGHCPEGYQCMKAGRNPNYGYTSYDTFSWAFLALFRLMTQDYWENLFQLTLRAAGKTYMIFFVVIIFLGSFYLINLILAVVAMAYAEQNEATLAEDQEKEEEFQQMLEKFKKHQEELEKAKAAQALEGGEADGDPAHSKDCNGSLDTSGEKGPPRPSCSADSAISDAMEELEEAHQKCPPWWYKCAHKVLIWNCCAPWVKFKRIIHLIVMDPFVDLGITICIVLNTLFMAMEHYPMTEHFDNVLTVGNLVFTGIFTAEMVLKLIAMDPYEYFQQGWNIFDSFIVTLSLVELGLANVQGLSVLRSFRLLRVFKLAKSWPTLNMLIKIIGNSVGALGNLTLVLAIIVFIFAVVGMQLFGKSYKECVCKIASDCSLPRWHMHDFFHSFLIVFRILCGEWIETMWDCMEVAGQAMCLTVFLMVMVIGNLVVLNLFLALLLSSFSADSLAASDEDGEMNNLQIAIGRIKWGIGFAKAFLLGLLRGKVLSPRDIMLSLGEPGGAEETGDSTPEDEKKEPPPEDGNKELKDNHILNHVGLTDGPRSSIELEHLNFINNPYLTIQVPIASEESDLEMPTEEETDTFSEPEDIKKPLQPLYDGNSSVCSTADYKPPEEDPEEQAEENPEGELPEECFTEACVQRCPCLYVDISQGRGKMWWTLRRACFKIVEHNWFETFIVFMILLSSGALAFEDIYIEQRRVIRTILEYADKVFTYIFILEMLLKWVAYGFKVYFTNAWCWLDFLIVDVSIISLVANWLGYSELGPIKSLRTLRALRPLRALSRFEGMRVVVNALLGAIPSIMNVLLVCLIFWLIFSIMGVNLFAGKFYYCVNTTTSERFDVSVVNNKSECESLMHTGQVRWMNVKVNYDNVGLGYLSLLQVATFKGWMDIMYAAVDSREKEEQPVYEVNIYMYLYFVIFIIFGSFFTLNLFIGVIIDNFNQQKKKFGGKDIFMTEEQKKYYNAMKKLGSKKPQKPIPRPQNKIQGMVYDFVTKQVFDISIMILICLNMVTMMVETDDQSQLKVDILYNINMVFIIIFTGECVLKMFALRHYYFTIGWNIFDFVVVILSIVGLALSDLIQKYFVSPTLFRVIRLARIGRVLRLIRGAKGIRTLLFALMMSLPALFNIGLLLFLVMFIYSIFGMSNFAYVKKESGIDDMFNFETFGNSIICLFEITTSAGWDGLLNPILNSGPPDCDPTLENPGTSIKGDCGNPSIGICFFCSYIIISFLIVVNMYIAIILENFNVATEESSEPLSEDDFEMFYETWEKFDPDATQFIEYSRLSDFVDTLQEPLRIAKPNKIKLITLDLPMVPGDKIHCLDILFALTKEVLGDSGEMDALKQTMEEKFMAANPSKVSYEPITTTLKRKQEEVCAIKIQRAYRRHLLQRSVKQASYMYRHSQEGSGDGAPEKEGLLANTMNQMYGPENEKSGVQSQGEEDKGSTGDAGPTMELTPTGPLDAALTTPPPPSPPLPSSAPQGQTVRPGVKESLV

SMILES	effect on ectopic activity and tactile allodynia [1]	block of the increase in [14C] guanidine influx (Nav1.8)	block of the increase in [14C] guanidine influx (Nav1.4)	block of the increase in [14C] guanidine influx (Nav1.4 and 1.5)	block of the increase in [14C] guanidine influx (Nav1.2)	block of the increase in [14C] guanidine influx (Nav1.9 and Nav1.7)	inhibition at 10 µM (CYP3A4) [%]	melting point [°C]	IC50 (sodium channel) [nM]	Ki [2] [nM]
CCN(CC)CC(=O)Nc1c(C)cccc1C [lidocaine]	suppress the ectopic activity and reverse the tactile allodynia	–	–	–	–	–	–	–	–	–
NC1=N[C@H](O)[C@H]2[C@H]3O[C@]4(O)O[C@@H]([C@@H](O)[C@@]2(N1)[C@@H]4O)[C@]3(O)CO [TTX, tetrodotoxin]	–	TTX partially blocked influx	completely blocked using TTX.	partially blocked by TTX at 100 nM	guanidine influx was completely	background was partially blocked	–	–	–	–
COCCOCCN1C(=O)C2(COc3cc4c(cc32)OCCO4)c2ccccc21 (centres unmarked) [Example 9.20, 1′-[2-(2-methoxyethoxy)ethyl]-2,3-dihydrospiro[furo[2,3-g][1,4]benzodioxine-8,3′-indol]-2′(1′H)-one]	–	–	–	–	–	–	< 50	90 to 91	1 to 100	< 300
O=C1N(Cc2ccccn2)c2ccccc2[C@]12COc1cc3c(cc12)CCO3 [Example 5.6, (3S)-1′-(pyridin-2-ylmethyl)-5,6-dihydrospiro[benzo[1,2-b:5,4-b′]difuran-3,3′-indol]-2′(1′H)-one]	–	–	–	–	–	–	< 50	84 to 85	1 to 100	> 300
O=C1N(Cc2ccccn2)c2cccc(-c3ccc(Oc4ccccc4)cc3)c2C12COc1cc3c(cc12)OCCO3 (centres unmarked) [Example 4.103, 4′-(4-phenoxyphenyl)-1′-(pyridin-2-ylmethyl)-2,3-dihydrospiro[furo[2,3-g][1,4]benzodioxine-8,3′-indol]-2′(1′H)-one]	–	–	–	–	–	–	< 50	196 to 199	100 to 1000	< 300
O=C1N(C[C@@H]2CCCO2)c2ccccc2C12COc1cc3c(cc12)OCCO3 (stereo partly drawn) [Example 4.43, 1-[(2S)-tetrahydrofuran-2-ylmethyl]-2,3-dihydrospiro[furo[2,3-g][1,4]benzodioxine-8,3′-indol]-2′(1′H)-one]	–	–	–	–	–	–	< 50	173 to 175	1 to 100	> 300
O=C1N(Cc2ccc3nonc3c2)c2ccccc2C12COc1cc3c(cc12)CCO3 (centres unmarked) [Example 4.27, 1′-(2,1,3-benzoxadiazol-5-ylmethyl)-5,6-dihydrospiro[benzo[1,2-b:5,4-b′]difuran-3,3′-indol]-2′(1′H)-one]	–	–	–	–	–	–	> 50	169 to 171	1 to 100	> 300
